30 compounds from patent publication US10940139B2, “Compounds that interact with the Ras superfamily for the treatment of cancers, inflammatory diseases, rasopathies, and fibrotic disease” (Shy Therapeutics LLC, priority 2017, dated 2021) can be followed below.

The structures appear in SMILES notation.

For one assay, the system named is MIA-PACA2 pancreatic cancer cell lines. Description: Cell proliferation assay (CellTiter 96 AQueous One). Type of assay: cell-based. The conditions noted are these: Homo sapiens, MIA PaCa-2; MIA-PACA2, same assay as the % inhibition (standard conditions). Here is the method: Cell lines: Tumor-derived pancreatic cancer cell lines MIA-PACA2 were purchased from ATCC and grown in complete DMEM-High Glucose medium supplemented with penicillin (100 U/mL), streptomycin (100 μg/mL), and 10% heat-inactivated FBS at 37° C. in a humidified incubator with 5% CO2.
Method: Cells are plated at 1000 cells/well density in 96-wells plate, starved ON, and the next day tested small molecules are added to the cells in the final concentration of 30 μM with 0.3% DMSO 3 hours prior to 10% FBS addition. After serum addition cells are incubated for 6 days at 37° C. in a humidified incubator with 5% CO2. For IC50 value determination, serial dilutions of compounds were added to cells under the same conditions.
Assay: At the end of the incubation period, cell cultures are tested using the CellTiter 96® AQueous One Solution Cell Proliferation Assay kit (Promega Corporation, Madison, Wis.) according to the manufacturer specifications. Briefly, assay is performed by adding 20 μl of the CellTiter 96 Aqueous One Solution Reagent directly to culture wells, followed by for 1-4 hours incubation at 37° C. in a humidified incubator with 5% CO2. At the end of incubation time, absorbance at 492 nm is recorded with the 96-well plate reader Eppendorf AF2200, and degree of small molecule-dependent proliferation inhibition is calculated from raw data assuming No Serum cells value as 100%.
As usually defined, the IC50 is the concentration that inhibits the measured activity by half. For the compound `COc1cccc(N2CCN(C(=O)c3csc4c(O)nc(-c5ccccn5)nc34)CC2)c1` [drawing 1632], the IC50 lay within 100 to 500 nM.

Still in this assay, the particulars now being: Homo sapiens, MIA PaCa-2; at 30 μM, MIA-PACA2.
In general, inhibition refers to how much of the control response was suppressed. `O=C(COCc1cccnc1)Nc1nc(-c2ccccn2)nc2sccc12` [drawing 1705] showed an inhibition at 30 µM of 76 to 100%.

`COc1ccc(F)cc1-c1csc2c(O)nc(-c3ccccn3)nc12` [drawing 1750] had an inhibition at 30 µM of 76 to 100%.

`Oc1nc(-c2ccccn2)nc2c(-c3cc(F)ccc3OC(F)F)csc12` [drawing 1736] had an inhibition at 30 µM of 76 to 100%.

`O=C(Nc1nnc(-c2ccccn2)[nH]1)c1ncoc1-c1cccs1` [drawing 1416] had an inhibition at 30 µM of 76 to 100%.

`Cc1cc(C(=O)Nc2nc(-c3ccccn3)cs2)no1` [drawing 1475]: the inhibition at 30 µM was in the range of 76 to 100%.

Take `O=C(c1cocn1)N1CCCc2c(O)nc(-c3ccccn3)nc21` [drawing 1551]: the inhibition at 30 µM lay within 1 to 25%.

Consider `O=C(Nc1nnc(-c2ccccn2)[nH]1)c1cccc(NC(=O)C2CCCO2)c1` (stereo not shown) [drawing 1414], for which the inhibition at 30 µM lay within 51 to 75%.

In the case of `COc1ccc(-c2csc3[nH]c(-c4ccccn4)nc(=O)c23)cc1` [drawing 1489], the inhibition at 30 µM is 76 to 100%.

Take `O=C1CCN(c2nc(-c3ccccn3)nc3scc(-c4ccccc4)c23)CC1` [drawing 1627]: the inhibition at 30 µM is 76 to 100%.

On to `COc1ccc2c(ccn2CC(=O)Nc2nnc(-c3ccccn3)[nH]2)c1` [drawing 1399], for which the inhibition at 30 µM lay within 76 to 100%.

Turning to `O=C(Nc1nnc(-c2ccccn2)[nH]1)c1ccc(=O)[nH]n1` [drawing 1470], the inhibition at 30 µM fell in the range of 25 to 50%.

Turning to `CN(CC(=O)Nc1nnc(-c2ccccn2)[nH]1)Cc1ccccc1` [drawing 1449], the inhibition at 30 µM fell in the range of 51 to 75%.

For `OCC1(c2ccc(-c3csc4c(O)nc(-c5ccccn5)nc34)cc2)CC1` [drawing 1762], the inhibition at 30 µM is 76 to 100%.

With `COc1ccc(COCC(=O)Nc2nnc(-c3ccccn3)[nH]2)cc1` [drawing 1471], the inhibition at 30 µM lay in the range of 1 to 25%.

`Nc1nc(-c2ccccn2)nc2scc(Br)c12` [drawing 1770] had an inhibition at 30 µM of 1 to 25%.

With `O=C(NCCc1ccnc(O)n1)c1csc2nc(-c3ccccn3)nc(N3CCOCC3)c12` [drawing 1774], the inhibition at 30 µM lay within 1 to 25%.

In turn, `CCC(C)(C)c1ccc(OCCCC(=O)NC(C(=O)OC)C(C)C)c(C(C)(C)CC)c1` (stereo not shown) [drawing 1524] gave an inhibition at 30 µM of 76 to 100%.

Turning to `CC(COCc1ccccc1)C(=O)Nc1nnc(-c2ccccn2)[nH]1` (stereo not shown) [drawing 1429], the inhibition at 30 µM fell in the range of 25 to 50%.

Consider `O=C(Cc1ccc2c(c1)OCCO2)Nc1nnc(-c2ccccn2)[nH]1` [drawing 1461], for which the inhibition at 30 µM lay within 51 to 75%.

Consider `Oc1nc(-c2ccccn2)nc2c(-c3ccc(Cl)c(Cl)c3)csc12` [drawing 1785], for which the inhibition at 30 µM lay in the range of 76 to 100%.

Consider `O=S(=O)(Oc1cc(C(F)(F)F)cc(C(F)(F)F)c1)N1CCc2ccccc2C1` [drawing 1532], for which the inhibition at 30 µM fell in the range of 25 to 50%.

The compound `O=c1nc(-c2ccccn2)[nH]c2scc(-c3ccccc3Cl)c12` [drawing 1492] showed an inhibition at 30 µM of 76 to 100%.

Consider `OC1CCN(c2nc(-c3ccccn3)nc3scc(-c4ccccc4)c23)CC1` [drawing 1619], for which the inhibition at 30 µM fell in the range of 76 to 100%.

`O=C(Cc1c[nH]c2ccccc12)Nc1nnc(-c2ccccn2)[nH]1` [drawing 1387] displayed an inhibition at 30 µM of 1 to 25%.

As for `COc1ccc(N2CCN(C(=O)c3csc4c(O)nc(-c5ccccn5)nc34)CC2)c(OC)c1` [drawing 1652], the inhibition at 30 µM lay in the range of 76 to 100%.

For `Cc1oc(-c2ccccc2)nc1C(=O)Nc1nnc(-c2ccccn2)[nH]1` [drawing 1393], the inhibition at 30 µM lay within 76 to 100%.

`O=C(CN1CCN(c2nc(-c3ccccn3)nc3scc(-c4ccccc4)c23)CC1)NC1CC1` [drawing 1621] displayed an inhibition at 30 µM of 76 to 100%.

Regarding `Brc1csc2nc(-c3ccccn3)nc(N3CCOCC3)c12` [drawing 1587], the inhibition at 30 µM is 25 to 50%.

With `COc1cccc(N2CCN(C(=O)c3csc4c(O)nc(-c5ccccn5)nc34)CC2)c1` [drawing 1632], the inhibition at 30 µM fell in the range of 76 to 100%.

`Oc1nc(-c2ccccn2)nc2c(-c3ccc(OC4CCOC4)cc3)csc12` (stereo not shown) [drawing 1738] came in with an inhibition at 30 µM of 76 to 100%.
